# Laboratory results taken from US10745356B2, “Compositions and methods for treating tuberculosis” (priority 2015, dated 2020).
# Like-named read-outs stand apart in the source and are kept apart here.
# System: M. tuberculosis strains
# Assay: Minimum Inhibitory Concentration (MIC) against M. tuberculosis strains, resazurin microtiter plate assay
# Type: cell-based, Mycobacterium tuberculosis
# Conditions: Mycobacterium tuberculosis
# [1] = Table 1, C2 SAR with chlorophenyl, Middlebrook 7H9, 37° C. six days, resazurin fluorescence after 48 hours, read-out: MIC90
# [2] = Table 4A, C6 SAR with amide, Middlebrook 7H9, 37° C. six days, resazurin fluorescence after 48 hours, read-out: MIC90
# [3] = Table 2, C4 SAR, Middlebrook 7H9, 37° C. six days, resazurin fluorescence after 48 hours, read-out: MIC90
# [4] = Table 1A, C2 SAR with fluorophenyl, Middlebrook 7H9, 37° C. six days, resazurin fluorescence after 48 hours, read-out: MIC90
# [5] = Table 5, Middlebrook 7H9, 37° C. six days, resazurin fluorescence after 48 hours, read-out: MIC90
compound,measurement,setting,value
CNC(=O)c1cc(-c2ccccc2Cl)c2c(C)c(-c3ccncc3)c(C)cc2n1 [Compound 13],MIC90,[1],0.8 µM
same,MIC90,"Table 3, C4 SAR, Middlebrook 7H9, 37° C. six days, resazurin fluorescence after 48 hours, read-out: MIC90",0.8 µM
CNC(=O)c1cc(-c2ccccc2F)c2c(C)c(C3=CCC(CO)CC3)c(C)cc2n1 (stereo not shown) [Compound 91],MIC90,,0.6 µM
CNC(=O)c1cc(-c2ccccc2F)c2c(C)c(-c3cccnc3)c(C)cc2n1 [Compound 85],MIC90,[2],3 µM
Cc1cc2nc(C(=O)NCC3CCCS(=O)(=O)C3)cc(-c3ccccc3Cl)c2c(C)c1-c1ccncc1 (stereo not shown) [Compound 21],MIC90,[1],0.8 µM
Cc1cc2nccc(-c3cccc(Cl)c3)c2c(C)c1-c1ccc(CN2CCOCC2)cc1 [Compound 49],MIC90,,0.6 µM
Cc1cc2nccc(-c3ccccc3C(=O)O)c2c(C)c1-c1ccc(CN2CCOCC2)cc1 [Compound 57],MIC90,,40 µM
Cc1cc2nccc(-c3ccccc3CO)c2c(C)c1-c1ccc(CN2CCOCC2)cc1 [Compound 55],MIC90,[3],2.5 µM
Cc1cc2nc(C(=O)NC3CCN(C)CC3)cc(-c3ccccc3F)c2c(C)c1-c1ccncc1 [Compound 46],MIC90,[4],1.25 µM
Cc1cc2nc(C(=O)N[C@H](C)CCO)cc(-c3ccccc3F)c2c(C)c1-c1ccncc1 [Compound 41],MIC90,[4],0.16 µM
COc1ccncc1-c1ccnc2cc(C)c(-c3ccc(CN4CCOCC4)cc3)c(C)c12 [Compound 59],MIC90,[3],2.5 µM
Cc1cc2nccc(-c3ccccc3F)c2c(C)c1-c1ccncc1 [Compound 36],MIC90,[4],5 µM
Cc1cc2nc(C(=O)NC[C@H](O)CO)cc(-c3ccccc3F)c2c(C)c1-c1ccncc1 [Compound 43],MIC90,[4],0.8 µM
Cc1cc2nc(C(=O)NC3CCN(C)CC3)cc(-c3ccccc3Cl)c2c(C)c1-c1ccncc1 [Compound 33],MIC90,[1],0.8 µM
CNC(=O)c1cc(-c2ccccc2F)c2c(C)c(C3=CCNCC3)c(C)cc2n1 [Compound 86],MIC90,,20 µM
CNC(=O)c1cc(-c2cccc(Cl)c2)c2c(C)c(-c3ccncc3)c(C)cc2n1 [Compound 66],MIC90,,2.5 µM
Cc1cc2nc(C(=O)NC3CC3)cc(-c3ccccc3Cl)c2c(C)c1-c1ccncc1 [Compound 14],MIC90,[1],1.9 µM
Cc1cc2nc(C(=O)NCCN(C)C)cc(-c3ccccc3Cl)c2c(C)c1-c1ccncc1 [Compound 16],MIC90,[1],0.3 µM
CNC(=O)c1cc(C2=CCCCC2)c2c(C)c(-c3ccncc3)c(C)cc2n1 [Compound 102],MIC90,[5],3 µM
Cc1cc2nccc(-c3ccccc3)c2c(C)c1-c1cncnc1 [Compound 73],MIC90,"Table 4, C6 SAR, Middlebrook 7H9, 37° C. six days, resazurin fluorescence after 48 hours, read-out: MIC90",40 µM
Cc1cc2nc(C(=O)NCC(C)(C)CO)cc(-c3ccccc3Cl)c2c(C)c1-c1ccncc1 [Compound 35],MIC90,[1],1.6 µM
CNC(=O)c1cc(-c2ccccc2F)c2c(C)c(-c3ccc(CN4CCOCC4)cc3)c(C)cc2n1 [Compound 78],MIC90,[2],0.6 µM
Cc1cc2nc(C(C)(C)O)cc(-c3ccccc3Cl)c2c(C)c1-c1ccncc1 [Compound 4],MIC90,[1],> 40 µM
Cc1cc2nccc(-c3ccccc3C(N)=O)c2c(C)c1-c1ccc(CN2CCOCC2)cc1 [Compound 56],MIC90,[3],20 µM
CNC(=O)c1cc(-c2ccccc2F)c2c(C)c(-c3ccnc(N)c3)c(C)cc2n1 [Compound 83],MIC90,[2],7.5 µM
Cc1cc2nc(C(=O)N[C@H](C)CO)cc(-c3ccccc3F)c2c(C)c1-c1ccncc1 [Compound 39],MIC90,[4],0.6 µM
Cc1cc2nccc(-c3ccccc3)c2c(C)c1-c1ccn(C)n1 [Compound 75],MIC90,,> 125 µM
COc1cccc(-c2ccnc3cc(C)c(-c4ccc(CN5CCOCC5)cc4)c(C)c23)c1Cl [Compound 53],MIC90,[3],10 µM
Cc1cc2nccc(-c3ccccc3)c2c(C)c1-c1cnn(C)c1 [Compound 77],MIC90,,47 µM
Cc1cc2nc(C(=O)N3CCNCC3)cc(-c3ccccc3Cl)c2c(C)c1-c1ccncc1 [Compound 30],MIC90,[1],10 µM
Cc1cc2nc(C(=O)NC3CCN(C)C3)cc(-c3ccccc3Cl)c2c(C)c1-c1ccncc1 (stereo not shown) [Compound 25],MIC90,[1],1.25 µM
Cc1cc2nc(C(=O)NS(C)(=O)=O)cc(-c3ccccc3Cl)c2c(C)c1-c1ccncc1 [Compound 94],MIC90,[5],5 µM
CNC(=O)c1cc(-c2ccccc2F)c2c(C)c(-c3cnc(C(=O)O)nc3)c(C)cc2n1 [Compound 82],MIC90,[2],80 µM
CNC(=O)c1cc(-c2ccccc2F)c2c(C)c(-c3ccnc(C)c3)c(C)cc2n1 [Compound 84],MIC90,[2],6 µM
